Data reported in patent US7323452B2, “Method for the accelerated in vivo removal of ethanol” (Wardan, L.L.C., priority 2000, dated 2008).
Marks after values point to notes of the source that are not given here.

Experiments:
Assay type in all cases: biochemical
[1] = Kinetics of transition metal oxidation of NADH (decrease in absorption at 340 nm)
Description: The rate of oxidation of NADH is followed over time as the decrease in the absorption at 340 nm.
The procedure in Example 43 is repeated replacing vanadyl sulfate with potassium ferricyanide.
The procedure in Example 43 is repeated replacing vanadyl sulfate with sodium molybdate.
The procedure in Example 43 is repeated replacing vanadyl sulfate with sodium phosphotungstate.

[2] = biological target: T1, Alcohol Dehydrogenase (from Equine liver) (Equus caballus, UniProt P00327); assay: DNP test for acetaldehyde formation: ethanol oxidation by NAD+ with Alcohol Dehydrogenase, with or without additive
T1 construct: Alcohol Dehydrogenase (from Equine liver); from tissue; host or cells: equine liver
Description: (§1) The reagent quenches any oxidative reaction of alcohol as well as detects the formation of acetaldehyde. An orange, crystalline precipitate indicates a positive reaction.
(§2) The DNP reagent is a fresh solution of 0.5 gm. of 2.4-dinitrophenylhydrazine in 20 mL methanol and 5 mL concentrated sulfuric acid, diluted to 50 mL of deionized distilled water.
To a 0.05M solution of ethanol in a 1M (pH 9.25) phosphate buffer (10 μL) are added 10 μL each of a solution 0.08M in NAD^+ (in deionized distilled water) and 4 U/mL Alcohol Dehydrogenase (from Equine liver) in the above buffer, and diluted to 100 μL with buffer. At the end of a specified time, it was quenched with the DNP reagent.
The procedure in Example 1 was repeated with the addition of 10 μL of a 0.01M vanadyl sulfate solution in deionized distilled water.
The procedure-in Example 2 is repeated using a pH 7.25 1M phosphate buffer.
The procedure in Example 3 is repeated using a pH 7.25 1M phosphate buffer.

ADH = ADH (Equus caballus, UniProt P00327); assay: Rate of ADH catalyzed NAD+ oxidation of ethanol (rise in absorption at 340 nm) with additives; conditions: pH 9.25
Description: In Examples 51-53, the rate of ADH catalyzed NAD^+ oxidation of alcohol is followed by the rise in absorption at 340 nm, with and without additives. When a solvent (methanol) is needed to dissolve the additive, an equal amount is added to the “blank” or “control”. The results, as summarized in Table 3, indicate the effectiveness of Daidezin, Aloin and Methoxatin as accelerators.
To a 0.01M solution of ethanol (10 μL) in 1M pH 9.25 phosphate buffer, in a multi-well plate, is added a solution of aloin, of the indicated concentration (10 μL) and 10 μL of a solution containing 0.2 U/mL ADH and diluted to 180 μL with buffer. To the mixture is added 20 μL of a 0.01M solution of NAD^+ in deionized distilled water, and the absorbance at 340 nm is followed with time.
The procedure in Example 51 is repeated using Daidezin.
The procedure in Example 51 is repeated using Methoxatin.

[3] = DNP test for acetaldehyde formation: ethanol oxidation with the enzyme solution omitted; conditions: no additive, stood 15 minutes
Description: as §1, §2
The procedure in Example 1 was repeated with the omission of the enzyme solution.
The procedure in Example 3 was repeated with the omission of the enzyme solution.
The procedure in Example 4 was repeated with the omission of NAD^+.
The procedure in Example 2 is repeated using a pH 7.25 1M phosphate buffer.
The procedure in Example 4 is repeated using a pH 7.25 1M phosphate buffer.
The procedure in Example 5 is repeated using a pH 7.25 1M phosphate buffer.

Sequence of ADH (P00327 whole entry): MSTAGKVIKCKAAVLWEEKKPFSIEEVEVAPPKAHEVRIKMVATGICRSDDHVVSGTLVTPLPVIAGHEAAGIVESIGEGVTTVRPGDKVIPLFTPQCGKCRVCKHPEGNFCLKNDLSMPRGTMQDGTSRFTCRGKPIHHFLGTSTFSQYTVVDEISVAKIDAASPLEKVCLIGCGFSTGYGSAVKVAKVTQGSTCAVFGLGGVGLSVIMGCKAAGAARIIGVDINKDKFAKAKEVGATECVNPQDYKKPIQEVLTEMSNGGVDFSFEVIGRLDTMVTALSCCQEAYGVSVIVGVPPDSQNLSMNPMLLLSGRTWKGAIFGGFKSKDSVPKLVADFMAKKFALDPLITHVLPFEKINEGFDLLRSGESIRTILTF
T1 sequence (P00327 whole entry): as above

Compound: sodium phosphotungstate
- Slope ([1]; pH 7.25): 0 mol/L/min
- Slope (OD/Min) ([1]; pH 7.25): 0 OD/Min
- Slope ([1]; pH 9.25): .0000006 mol/L/min
- Slope (OD/Min) ([1]; pH 9.25): .007* OD/Min
- DNP results of Examples 25-30 repeated with the additive in place of vanadyl sulfate ([2]; pH 7.25): almost identical results
- DNP results of Examples 1-5 repeated with the additive in place of vanadyl sulfate ([2]; pH 9.25): almost identical results

Compound: [Na+].[Na+].[O]=[Mo](=[O])([O-])[O-] [Molybdate, sodium molybdate]
- Slope ([1]; pH 7.25): .00000012 mol/L/min
- Slope (OD/Min) ([1]; pH 7.25, absorption at 340 nm, * unexplained, text mentions an induction period): .0025* OD/Min
- Slope ([1]; pH 9.25): .0000003 mol/L/min
- Slope (OD/Min) ([1]; pH 9.25, absorption at 340 nm, * unexplained, text mentions an induction period): .0035* OD/Min

Compound: O=c1c(-c2ccc(O)cc2)coc2cc(O)ccc12 [Daidezin]
- Relative rates of Ethanol Oxidation in presence of Additives (Control = 1) (ADH; additive .000005M): 1.28
- Relative rates of Ethanol Oxidation in presence of Additives (Control = 1) (ADH; additive .00001M): 1.38

Compound: O=C1c2c(O)cccc2C([C@@H]2O[C@H](CO)[C@@H](O)[C@H](O)[C@H]2O)c2cc(CO)cc(O)c21 (stereo partly shown) [Aloin]
- Relative rates of Ethanol Oxidation in presence of Additives (Control = 1) (ADH; additive .000005M): 1.07
- Relative rates of Ethanol Oxidation in presence of Additives (Control = 1) (ADH; additive .00001M): 1.19

Compound: NC(=O)c1ccc[n+]([C@@H]2O[C@H](COP(=O)([O-])OP(=O)(O)OC[C@H]3O[C@@H](n4cnc5c(N)ncnc54)[C@H](O)[C@@H]3O)[C@@H](O)[C@H]2O)c1 [NAD^+, Nicotinamide Adenine Dinucleotide, reference compound]
- DNP reaction (acetaldehyde formation) ([3]; pH 7.25, ethanol + NAD+): negative
- DNP reaction (acetaldehyde formation) ([3]; pH 9.25, ethanol + NAD+): negative

Compound: O=S(=O)([O-])[O-].[O]=[V+2] [vanadyl sulfate]
- Slope ([1]; pH 7.25): .0000036 mol/L/min
- Slope (OD/Min) ([1]; pH 7.25): .0079 OD/Min
- Slope ([1]; pH 9.25): .000005 mol/L/min
- Slope (OD/Min) ([1]; pH 9.25): .0112 OD/Min
- DNP reaction (acetaldehyde formation) ([2]; pH 7.25): positive
- DNP reaction (acetaldehyde formation) ([2]; pH 9.25): positive

Compound: O=C(O)c1cc(C(=O)O)c2c(n1)C(=O)C(=O)c1cc(C(=O)O)[nH]c1-2 [Methoxatin, 4,5-Dihydro-4,5-dioxo-1H-pyrrolo [2,3-f] quinoline-2,7,9-tricarboxylic acid]
- Relative rates of Ethanol Oxidation in presence of Additives (Control = 1) (ADH; additive .000005M): 1.29
- Relative rates of Ethanol Oxidation in presence of Additives (Control = 1) (ADH; additive .00001M): 1.59

Compound: ammonium molybdate
- DNP results of Examples 1-5 repeated with the additive in place of vanadyl sulfate ([2]; pH 9.25): almost identical results
